Laboratory results published in patent US20240383870A1, “HETEROCYCLIC ALDEHYDE TRAPPING COMPOUNDS AND USES THEREOF” (Aldeyra Therapeutics, Inc., priority 2021, published 2024).

Assays:
Format in all cases: in vivo
eotaxin = experiment: Acute LPS-induced sepsis in C57BL/6 mice: eotaxin cytokine detection assay; conditions: LPS-challenged mice, plasma at 6.5 h, unpaired t-test vs vehicle
IL-6 = experiment: Acute LPS-induced sepsis in C57BL/6 mice: IL-6 cytokine detection assay; conditions: 200 mpk PO; LPS-challenged mice, plasma at 6.5 h; unpaired t-test vs vehicle
From the text: FIG. 11 is a graph showing the results of an IL-6 cytokine detection assay in samples collected from mouse subjects after administration of compounds of the present disclosure.
(§1) The primary objective of this study was to collect plasma samples of lipopolysaccharide (LPS) challenged C57BL/6 mice after dose of test compounds to provide a cytokine profile as impacted by prophylactic treatments. This study models acute sepsis, which is a systemic inflammatory syndrome initiated by Gram-negative and Gram-positive bacteria and fungi which infect the lungs, abdomen, bloodstream, and renal or genitourinary tracts. Sepsis patients ultimately die of multiorgan failure which is caused by extensive tissue hypo-oxygenation due to ongoing microvascular leakage, disseminated intravascular coagulation, compromised energy production, and metabolic alterations. Sepsis is characterized by an early systemic inflammatory response phase featuring symptoms, such as tachycardia, fever, hyperventilation, and activation of the complement and coagulation cascades. However, it is now appreciated that a compensatory anti-inflammatory response phase follows, characterized by neuroendocrine-mediated immunosuppression. Since these processes are the result of interaction between cells of inflammation and organs, investigation of the treatment of this syndrome requires the use of intact animal models. The use of ten mice per group allows useful statistical modelling of the results.
(§2) For the data shown in Table 2A, 103 mice (female, 18-22 gram, C57BL/6) were purchased from ENVIGO. The mice were housed in 20 cages of 5 mice per cage with 1 cage of 3 mice as extra. The cages had filter tops and autoclaved bedding, and the animals were placed in quarantine with daily inspection. The treatment groups are detailed in Table 2A below. 10 mice were included in each group. The mice were dosed by oral gavage (PO) at 10 ml/kg as per the table below. MC=methyl cellulose.
as §2, with “2B, 185” for “2A, 103”, “37” for “20”, “cage.” for “cage with 1 cage of 3 mice as extra.”, “2B” for “2A”, “(P0)” for “(PO)”
(§3) At T=0 h, the mice were dosed with one of the test compounds as described in the above table.
(§4) At T=0.5 h, the mice were injected IP with 1.5 mg/kg […] (Sigma).
(§5) At T=6.5 h, all mice were anesthetized and exsanguinated into pre-chilled EDTA-treated tubes. […]
(§6) A 32-plex cytokine panel was obtained from Eve Technologies. Each cytokine was assessed based against a 7 point curve range in duplicate. […]

IL-7 = experiment: Acute LPS-induced sepsis in C57BL/6 mice: IL-7 cytokine detection assay; conditions: LPS-challenged mice, plasma at 6.5 h, unpaired t-test vs vehicle
IL-13 = experiment: Acute LPS-induced sepsis in C57BL/6 mice: IL-13 cytokine detection assay; conditions: 200 mpk PO; LPS-challenged mice, plasma at 6.5 h; unpaired t-test vs vehicle
From the text: FIG. 17 is a graph showing the results of an IL-13 cytokine detection assay in samples collected from mouse subjects after administration of compounds of the present disclosure.
as §1, §2
as §2, with “2B, 185” for “2A, 103”, “37” for “20”, “cage.” for “cage with 1 cage of 3 mice as extra.”, “2B” for “2A”, “(P0)” for “(PO)”
as §3, §4
(§7) At T=6.5 h, all mice were anesthetized and exsanguinated into pre-chilled EDTA-treated tubes. The blood was processed to plasma which was stored in labeled 0.5 polypropylene snap-cap tubes (0.5 mL Eppendorf Safe-Lock Tubes (Fisher Scientific) at −80° C.
(§8) Preparation of vehicle: 1.0 gram of methyl cellulose (Sigma) was dissolved in 200 mL of water (USP purified) to make a solution of 0.5% methyl cellulose in water. Preparation of LPS solution: 6 mg of LPS (from Escherichia Coli 055:B5, Cat #L2880, Sigma Lot #057m4013) was dissolved in 20 ml of saline to give a LPS solution of 0.3 mg/ml. All mice were injected with 5 ml/kg (1.5 mg/kg) at the scheduled time by intraperitoneal injection.
A 32-plex cytokine panel was obtained from Eve Technologies. Each cytokine was assessed based against a 7 point curve range in duplicate. The average of the two replicate analyses was used for statistics. […]

IL-15 = experiment: Acute LPS-induced sepsis in C57BL/6 mice: IL-15 cytokine detection assay; conditions: LPS-challenged mice, plasma at 6.5 h, unpaired t-test vs vehicle
IL-17 = experiment: Acute LPS-induced sepsis in C57BL/6 mice: IL-17 cytokine detection assay; conditions: LPS-challenged mice, plasma at 6.5 h, unpaired t-test vs vehicle
From the text: FIG. 19 is a graph showing the results of an IL-17 cytokine detection assay in samples collected from mouse subjects after administration of compounds of the present disclosure.
as §1
as §2, with “The mice were dosed by oral gavage (PO) at 10 ml/kg as per the table below.” left out
as §2, with “2B, 185” for “2A, 103”, “37” for “20”, “cage.” for “cage with 1 cage of 3 mice as extra.”, “2B” for “2A”, “(P0)” for “(PO)”
as §3, §4, §5, §6

KC = experiment: Acute LPS-induced sepsis in C57BL/6 mice: KC cytokine detection assay; conditions: 200 mpk PO; LPS-challenged mice, plasma at 6.5 h; unpaired t-test vs vehicle
From the text: FIG. 20 is a graph showing the results of a KC cytokine detection assay in samples collected from mouse subjects after administration of compounds of the present disclosure.
as §1, §2
as §2, with “2B, 185” for “2A, 103”, “37” for “20”, “cage.” for “cage with 1 cage of 3 mice as extra.”, “2B” for “2A”, “(P0)” for “(PO)”
as §3, §4, §7, §8
A 32-plex cytokine panel was obtained from Eve Technologies. Each cytokine was assessed based against a 7 point curve range in duplicate. The average of the two replicate analyses was used for statistics. Unpaired t-tests were performed using Excel™ contrasting vehicle against each treatment group. One star indicates P<0.05. Two stars indicates P<0.01. Three stars indicates P<0.001. Four stars indicates P<0.0001. Most, but not all, statistically significant results are indicated with star(s).

[1] = test system: leukemia inhibitory factor (LIF); experiment: Acute LPS-induced sepsis in C57BL/6 mice: leukemia inhibitory factor (LIF) cytokine detection assay; conditions: 200 mpk PO; LPS-challenged mice, plasma at 6.5 h; unpaired t-test vs vehicle
From the text: FIG. 21 is a graph showing the results of a leukemia inhibitory factor (LIF) cytokine detection assay in samples collected from mouse subjects after administration of compounds of the present disclosure. LIF is an interleukin 6 class cytokine that affects cell growth by inhibiting differentiation.
as §1, §2
as §2, with “2B, 185” for “2A, 103”, “37” for “20”, “cage.” for “cage with 1 cage of 3 mice as extra.”, “2B” for “2A”, “(P0)” for “(PO)”
as §3, §4, §7, §8, §6

MCP-1(CCL2) = experiment: Acute LPS-induced sepsis in C57BL/6 mice: MCP-1(CCL2) cytokine detection assay; conditions: 200 mpk PO; LPS-challenged mice, plasma at 6.5 h; unpaired t-test vs vehicle
MIP2(CXCL2) = experiment: Acute LPS-induced sepsis in C57BL/6 mice: MIP2(CXCL2) cytokine detection assay; conditions: 200 mpk PO; LPS-challenged mice, plasma at 6.5 h; unpaired t-test vs vehicle
From the text: FIG. 27 is a graph showing the results of a MIP2(CXCL2) cytokine detection assay in samples collected from mouse subjects after administration of compounds of the present disclosure.
as §1
as §2, with “The mice were dosed by oral gavage (PO) at 10 ml/kg as per the table below.” left out
as §2, with “2B, 185” for “2A, 103”, “37” for “20”, “cage.” for “cage with 1 cage of 3 mice as extra.”, “2B” for “2A”, “(P0)” for “(PO)”
as §3, §4, §5, §6

TNFα = experiment: Acute LPS-induced sepsis in C57BL/6 mice: TNFα cytokine detection assay; conditions: 200 mpk PO; LPS-challenged mice, plasma at 6.5 h; unpaired t-test vs vehicle
From the text: FIG. 29 is a graph showing the results of a TNFα cytokine detection assay in samples collected from mouse subjects after administration of compounds of the present disclosure.
as §1
as §2, with “cellulose. […]” for “cellulose.”
as §6

G-CSF = experiment: Acute LPS-induced sepsis in C57BL/6 mice: G-CSF cytokine detection assay; conditions: 100 mpk IP; LPS-challenged mice, plasma at 6.5 h; unpaired t-test vs vehicle
IFNγ = experiment: Acute LPS-induced sepsis in C57BL/6 mice: IFNγ cytokine detection assay; conditions: 100 mpk IP; LPS-challenged mice, plasma at 6.5 h; unpaired t-test vs vehicle
IL-3 = experiment: Acute LPS-induced sepsis in C57BL/6 mice: IL-3 cytokine detection assay; conditions: 100 mpk IP; LPS-challenged mice, plasma at 6.5 h; unpaired t-test vs vehicle
IL-10 = experiment: Acute LPS-induced sepsis in C57BL/6 mice: IL-10 cytokine detection assay; conditions: 100 mpk IP; LPS-challenged mice, plasma at 6.5 h; unpaired t-test vs vehicle
IL-12(p70) = experiment: Acute LPS-induced sepsis in C57BL/6 mice: IL-12(p70) cytokine detection assay; conditions: 100 mpk IP; LPS-challenged mice, plasma at 6.5 h; unpaired t-test vs vehicle
From the text: FIG. 16 is a graph showing the results of an IL-12(p70) cytokine detection assay in samples collected from mouse subjects after administration of compounds of the present disclosure.
as §1
as §2, with “The mice were dosed by oral gavage (PO) at 10 ml/kg as per the table below.” left out
as §2, with “2B, 185” for “2A, 103”, “37” for “20”, “cage.” for “cage with 1 cage of 3 mice as extra.”, “2B” for “2A”, “(P0)” for “(PO)”
as §3, §4, §7, §8
A 32-plex cytokine panel was obtained from Eve Technologies. Each cytokine was assessed based against a 7 point curve range in duplicate. The average of the two replicate analyses was used for statistics. Unpaired t-tests were performed using Excel™ contrasting vehicle against each treatment group. One star indicates P<0.05. […]

MIP-1a(CCL3) = experiment: Acute LPS-induced sepsis in C57BL/6 mice: MIP-1a(CCL3) cytokine detection assay; conditions: 100 mpk IP; LPS-challenged mice, plasma at 6.5 h; unpaired t-test vs vehicle

With `CC(O)(c1sc2cccc(Br)c2c1N)C(F)(F)F` (stereo not drawn) [Compound I-2, 2-(3-amino-4-bromobenzo[b]thiophen-2-yl)-1,1,1-trifluoropropan-2-ol] the “Eotaxin: significant cytokine change vs. vehicle” value (eotaxin; 200 mpk PO) was “** (Two stars indicates P<0.01)”, the “IL-6: significant cytokine change vs. vehicle” value (IL-6) was “**** (Four stars indicates P<0.0001)” and the “IL-7: significant cytokine change vs. vehicle” value (IL-7; 200 mpk PO) was “** (Two stars indicates P<0.01)”. The “IL-13: significant cytokine change vs. vehicle” value (IL-13) was “**** (Four stars indicates P<0.0001)”, the “IL-15: significant cytokine change vs. vehicle” value (IL-15; 200 mpk PO) was “** (Two stars indicates P<0.01)” and the “IL-17: significant cytokine change vs. vehicle” value (IL-17; 200 mpk PO) was “*** (Three stars indicates P<0.001)”. The “KC: significant cytokine change vs. vehicle” value (KC) was “*** (Three stars indicates P<0.001)”, the “LIF: significant cytokine change vs. vehicle” value [1] was “** (Two stars indicates P<0.01)” and the “MCP-1: significant cytokine change vs. vehicle” value (MCP-1(CCL2)) was “*** (Three stars indicates P<0.001)”. For the same compound, the “MIP-2: significant cytokine change vs. vehicle” value (MIP2(CXCL2)) was “*** (Three stars indicates P<0.001)” and the “TNFa: significant cytokine change vs. vehicle” value (TNFα) was “**** (Four stars indicates P<0.0001)”.

In the case of `CC(O)(c1sc2ccccc2c1N)C(F)(F)F` (stereo not drawn) [Compound I-1, 2-(3-aminobenzo[b]thiophen-2-yl)-1,1,1-trifluoropropan-2-ol], the “Eotaxin: significant cytokine change vs. vehicle” value (eotaxin; 100 mpk IP) is reported as “* (One star indicates P<0.05)”, the “G-CSF: significant cytokine change vs. vehicle” value (G-CSF) is reported as “* (One star indicates P<0.05)” and the “IFNy: significant cytokine change vs. vehicle” value (IFNγ) is reported as “**** (Four stars indicates P<0.0001)”. The “IL-3: significant cytokine change vs. vehicle” value (IL-3) was “**** (Four stars indicates P<0.0001)”, the “IL-7: significant cytokine change vs. vehicle” value (IL-7; 100 mpk IP) was “* (One star indicates P<0.05)” and the “IL-10: significant cytokine change vs. vehicle” value (IL-10) was “**** (Four stars indicates P<0.0001)”. For the same compound, the “IL-12 (p70): significant cytokine change vs. vehicle” value (IL-12(p70)) was “* (One star indicates P<0.05)”, the “IL-15: significant cytokine change vs. vehicle” value (IL-15; 100 mpk IP) was “** (Two stars indicates P<0.01)” and the “IL-17: significant cytokine change vs. vehicle” value (IL-17; 100 mpk IP) was “*** (Three stars indicates P<0.001)”. For the same compound, the “MIP-1a: significant cytokine change vs. vehicle” value (MIP-1a(CCL3)) was “** (Two stars indicates P<0.01)”.
